Results: paper PMC6255045, “Tyrosinase Inhibitor Activity of Coumarin-Resveratrol Hybrids” (Molecules, 2009)
Read-outs that look alike come from different tables or passages of the source.

Key:
[1] = system: mushroom tyrosinase; experiment: Tyrosinase inhibition assay (diphenolase activity, L-DOPA as substrate); type: biochemical; details: for tyrosinase inhibitory effect (in words): diphenolase activity; for tyrosinase inhibitory effect (in words) / % inhibition (at 0.8 mM) / IC50: substrate L-DOPA; for % inhibition (at 0.8 mM) / IC50: mushroom tyrosinase; for % inhibition (at 0.8 mM): compound at 0.8 mM
Protocol: Tyrosinase activity assays were performed with L-DOPA as substrate, as previously described with slight modifications. The pre-incubation with enzyme consisted of a 1/15 M phosphoric acid buffer solution (pH 6.8, 1.8 mL), an aqueous solution of mushroom tyrosinase (1000 U/mL, Sigma Chemical Co., 0.1 mL) and DMSO (0.1 mL) with or without an added sample. The mixture was pre-incubated at 25°C for 10 minutes. Then, a 1.5 mM L-DOPA solution (1 mL) was added and the reaction was monitored at 475 nm for 5 min. The detected absorbance increases accompanying the oxidation of the substrate (L-DOPA). The final concentration of dopaquinone was measured using the molar absorption coefficient of 3,700 M^-1 cm^-1 [31]. One unit of enzymatic activity was defined as the amount of enzyme transforming 1 μmole of L-DOPA per minute. The percentage of inhibition of tyrosinase activity was calculated as inhibition (%) = (A-B)/A×100, where A represents the difference in the absorbance of control sample between an incubation time of 0.5 and 1.0 min, and B represents the difference in absorbance of the test sample between an incubation time of 0.5 and 1.0 min. The activity of mushroom tyrosinase was determinate by spectrophotometric techniques (Varian Cary 50). DMSO inhibitory activity, in the same experimental conditions, was evaluated as 10.7%.

[2] = biological target: mushroom tyrosinase; details: cited from earlier work

## O=c1oc2cc(O)ccc2cc1-c1ccccc1 [Compound 1]
[1]
  tyrosinase inhibitory effect (in words): did not inhibit any tyrosinase activity
  % inhibition (at 0.8 mM): 0%

## O=c1oc2ccccc2cc1-c1ccc(O)cc1 [Compound 2]
[1]
  tyrosinase inhibitory effect (in words): no demonstrable inhibitory effects
  % inhibition (at 0.8 mM): 0%

## O=c1oc2cc(O)ccc2cc1-c1ccc(O)cc1 [Compound 3]
[1]
  tyrosinase inhibitory effect (in words): no demonstrable inhibitory effects
  % inhibition (at 0.8 mM): 9.6%

## O=c1oc2ccc(O)cc2cc1-c1ccc(O)cc1 [Compound 4, 6-hydroxy-3-(4’-hydroxyphenyl)coumarin]
[1]
  IC50: 1560 µM
  % inhibition (at 0.8 mM): 26.7%

## O=c1oc2ccc(O)cc2cc1-c1cc(O)cc(O)c1 [Compound 5]
[1]
  % inhibition (at 0.8 mM): 0%

## O=c1oc2cc(O)ccc2cc1-c1cc(O)cc(O)c1 [Compound 6]
[1]
  IC50: 3680 µM
  % inhibition (at 0.8 mM): 19.3%

## O=c1oc2c(O)cc(O)cc2cc1-c1cc(O)cc(O)c1 [Compound 7]
[1]
  % inhibition (at 0.8 mM): 0%

## O=c1oc2c(O)cc(O)cc2cc1-c1cc(O)c(O)c(O)c1 [Compound 8, 3-(3’,4’,5’-trihydroxyphenyl)-6,8-dihydroxycoumarin]
[1]
  IC50: 270 µM
  % inhibition (at 0.8 mM): 68.3%
[1]; with respect to L-DOPA as substrate at 0.5, 0.25 and 0.1 mM
  type of tyrosinase inhibition (Dixon plot): non-competitive

## O=c1ccc2ccc(O)cc2o1 [Umbelliferone]
[2]; mushroom tyrosinase, reference compound, ref [20]
  IC50: 420 µM

## O=c1cc(-c2cc(O)c(O)c(O)c2)oc2cc(O)cc(O)c12 [pentahydroxyflavone, 3’,4’,5,5’,7-pentahydroxyflavone]
[2]; previously reported, ref [29]
  type of tyrosinase inhibition: competitive inhibitor
